Measured values published in US9695155B2, “Herbicidal substituted pyrimidinyloxy benzene compounds” (E. I. DU PONT DE NEMOURS AND COMPANY, priority 2013, dated 2017).

Columns and labels:
[1] = system: large (Lg) crabgrass; test: Test C preemergence; format: in vivo, Digitaria sanguinalis; conditions: for Crabgrass, Large plant response rating: preemergence
How it was run: (§1)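 Visual injury score versus untreated controls, 0 = no effect, 100 = complete control, taken 13 to 15 days after treatment in the greenhouse. Pre-emergence pots held loam/sand; post-emergence plants grew in sphagnum peat/vermiculite mix and were sprayed at the 1- to 4-leaf stage.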

[2] = system: barnyardgrass; test: Test B flooded paddy test; format: in vivo, Echinochloa crus-galli; conditions: Flood, 250 g ai/ha; 0 to 100 scale where 0 is no effect and 100 is complete control
How it was run: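 2-leaf stage plants; pots flooded to 3 cm, compound added to paddy water, depth maintained. Greenhouse 13–15 d. Visual rating vs untreated controls, 0 (no effect) to 100 (complete control); dash = no result.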

[3] = system: giant foxtail; test: Test A preemergence; format: in vivo, Setaria faberii
How it was run: (§2)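 Injury scores run from 0, no effect, to 100, complete control, judged by eye against untreated plants roughly 10 days after treatment. Chemicals carried a surfactant in a non-phytotoxic solvent and went onto loam–sand soil preemergence or onto one- to two-leaf seedlings postemergence.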

[4] = system: Italian ryegrass; test: Test C preemergence; format: in vivo, Lolium multiflorum; conditions: for Ryegrass, Italian plant response rating: preemergence
How it was run: as §1

[5] = system: kochia; test: Test C postemergence; format: in vivo, Kochia scoparia
How it was run: as §1

[6] = system: ragweed; test: Test A preemergence; format: in vivo, Ambrosia elatior
How it was run: as §2

[7] = system: pigweed; test: Test A preemergence; format: in vivo, Amaranthus retroflexus
How it was run: as §2

[8] = system: chickweed; test: Test C postemergence; format: in vivo, Stellaria media
How it was run: as §1

[9] = system: wheat; test: Test A postemergence; format: in vivo, Triticum aestivum
How it was run: as §2

[10] = system: wild oat; test: Test C postemergence; format: in vivo, Avena fatua
How it was run: as §1

[11] = system: wheat, winter; test: Test C postemergence; format: in vivo, Triticum aestivum
How it was run: as §1

[12] = system: blackgrass; test: Test A postemergence; format: in vivo, Alopecurus myosuroides
How it was run: as §2

[13] = system: ragweed; test: Test A postemergence; format: in vivo, Ambrosia elatior
How it was run: as §2

[14] = 16 g ai/ha, scale 0 to 100 (0 no effect, 100 complete control)
[15] = 125 g ai/ha, scale 0 (no effect) to 100 (complete control)
[16] = Preemergence, 62 g ai/ha, scale 0 to 100, 0 no effect, 100 complete control
[17] = 500 g ai/ha, 0 to 100 scale where 0 is no effect and 100 is complete control
[18] = 16 g ai/ha, postemergence, 0 is no effect, 100 is complete control
[19] = 31 g ai/ha, postemergence, visual rating, scale 0 to 100 (0 no effect, 100 complete control), 13 to 15 days
[20] = 125 g ai/ha, postemergence, visual rating, scale 0 to 100 (0 no effect, 100 complete control)
[21] = Postemergence, 62 g ai/ha, scale 0 to 100 (0 no effect, 100 complete control), 13 to 15 days
[22] = 125 g ai/ha, 0 to 100 scale, 0 no effect, 100 complete control

N#Cc1cn(-c2c(C#N)cccc2Oc2ncc(Cl)cn2)nn1 [Compound 273]
Crabgrass, Large plant response rating [1, 14]: 90
Crabgrass, Large plant response rating [1, 15]: 100
Plant response rating, Crabgrass, Large [1, 16]: 95
Plant response rating, Barnyardgrass [2]: 0
Foxtail, Giant plant response rating (0 to 100 scale) ([3]; 125 g ai/ha): 90
Foxtail, Giant plant response rating [3, 17]: 90
Ryegrass, Italian plant response rating [4, 14]: 0
Ryegrass, Italian plant response rating [4, 15]: 60
Plant response rating, Ryegrass, Italian [4, 16]: 0
Plant response rating (0 to 100), Kochia [5, 18]: 70
Kochia plant response rating [5, 19]: 65
Plant response rating, Kochia [5, 20]: 95
Plant response rating, Kochia [5, 21]: 80
Ragweed plant response rating (0 to 100 scale) ([6]; 125 g ai/ha): 70
Ragweed plant response rating [6, 17]: 80
Pigweed plant response rating (0 to 100 scale) ([7]; 125 g ai/ha): 100
Pigweed plant response rating [7, 17]: 100
Plant response rating (0 to 100), Chickweed [8, 18]: 10
Chickweed plant response rating [8, 19]: 30
Plant response rating, Chickweed [8, 20]: 70
Plant response rating, Chickweed [8, 21]: 35
Plant response rating, Wheat [9, 22]: 10
Plant response rating, Wheat [9, 17]: 50
Plant response rating (0 to 100), Oat, Wild [10, 18]: 5
Oat, Wild plant response rating [10, 19]: 5
Plant response rating, Oat, Wild [10, 20]: 10
Plant response rating, Oat, Wild [10, 21]: 5
Plant response rating (0 to 100), Wheat [11, 18]: 0
Wheat plant response rating [11, 19]: 0
Plant response rating, Wheat [11, 20]: 10
Plant response rating, Wheat [11, 21]: 0
Plant response rating, Blackgrass [12, 22]: 60
Plant response rating, Blackgrass [12, 17]: 80
Plant response rating, Ragweed [13, 22]: 40
Plant response rating, Ragweed [13, 17]: 90
